Laboratory results reported in patent US6506550B1, “Method of including apoptosis by reducing the level of thiamin” (Brandeis University, priority 1997, dated 2003).
“Also recorded” adds a separate entry of the source. Where two headings read alike, the source gives them in different places.

Experiments:
rat glioma C6 cells = test: Induction of apoptosis in rat glioma C6 cells; format: cell-based; details: for concentration active in inducing apoptosis: in vitro
advanced ovarian cancer = details: cited from earlier work
[1] = in vivo; cited from earlier work
[2] = estimated (Woolley and White, 1943); cited from earlier work
Walker's sarcoma = details: rats; cited from earlier work
[3] = cited from earlier work
[4] = extremely high doses; cited from earlier work
[5] = room temperature; cited from earlier work
mice = details: cited from earlier work

CCCc1ncc(C[n+]2ccccc2C)c(N)n1 [Amprolium]
concentration active in inducing apoptosis (rat glioma C6 cells): ≥ 0.6 mM

N.N.[Cl][Pt][Cl] [cisplatin]
survival (advanced ovarian cancer; intraperitoneal injection): 49 months
survival (advanced ovarian cancer; intravenous injection): 41 months

Cc1ncc(C[n+]2cccc(CCO)c2C)c(N)n1 [pyrithiamin]
concentration active in inducing apoptosis (rat glioma C6 cells): ≥ 0.01 mM
passage of the blood-brain barrier [1]: does
molecules required to nullify one molecule of thiamin [2]: about 40 molecules

Cc1nc(N)cc(Cl)n1 [CMP, 4-Amino-6-chloro-2-methylpyrimidine]
induction of apoptosis by Naegleria agent pretreated with CMP (rat glioma C6 cells; CMP 2.5, 5, 10 mM, 16 h 25 °C, extract diluted to 10^−5, assay day 6 (FIG. 3)): prevented the induction of apoptosis; also recorded: did not induce apoptosis

Cc1ncc(C[n+]2csc(CCO)c2C)c(=O)[nH]1 [oxythiamin]
decrease in growth of Walker's sarcoma (Walker's sarcoma): 45%
passage of the blood-brain barrier [1]: do not pass

Cc1ncc(C[n+]2csc(CCO)c2C)c(N)n1 [thiamin]
excess thiamin concentration that prevented induction of apoptosis by freshly added agent (rat glioma C6 cells; Naegleria agent at dilution 10^−5, control medium 199): 0.5-2 mg per liter
half-life in the body ([3]; in vivo): 220 to 432 h
oral amount above which thiamin is not absorbed ([3]; oral, humans, excess excreted in urine and feces): 3-10 mg per dose
blood level causing respiratory paralysis [4]: ≥ 70 mg of thiamin per liter of blood
pH at which the methylene bridge is easily cleaved [5]: ≥ 9 pH
time to improvement after thiamin (mice; mice that could no longer stand upright): one
time to no discernible symptoms after thiamin (mice; mouse, in vivo): ≤ 20 h
